Results taken from patent US9446045B2, “Methods of using selective chemotherapeutic agents for targeting tumor cells” (Duquesne University of the Holy Ghost, priority 2006, dated 2016).

Tests used:
[1] = tested on: FR-alpha expressing RT16 cells; assay: Inhibition of FR-alpha expressing RT16 cells; type: cell-based; conditions: for selectivity for FR-alpha expressing RT16 cells over RFC expressing pc43-10 cells: RT16 vs pc43-10 cells
Protocol: (§1) AAG366, AAG344, the clinically used antifolates methotrexate, pemetrexed, ratitrexed, as well as the most important GARFTase inhibitor DDATHF (Lometrexol) were evaluated.

[2] = tested on: RFC expressing pc43-10 cells; assay: Inhibition of RFC expressing pc43-10 cells; type: cell-based; conditions: pc43-10 cells vs FR-alpha expressing cells
Protocol: as §1

Structure (SMILES)	potency against FR-alpha expressing RT16 cells compared with AAG366 and AAG344 [1]	selectivity for FR-alpha expressing RT16 cells over RFC expressing pc43-10 cells [1]	potency against RFC expressing pc43-10 cells compared to FR-alpha expressing RT16 or KB cells [2]
Nc1nc2c(c(=O)[nH]1)C[C@@H](CCc1ccc(C(=O)N[C@@H](CCC(=O)O)C(=O)O)cc1)CN2 [DDATHF]	less potent	none showed selectivity	equal potency
CN(Cc1cnc2nc(N)nc(N)c2n1)c1ccc(C(=O)N[C@@H](CCC(=O)O)C(=O)O)cc1 [methotrexate]	less potent	none showed selectivity	greater potency
Nc1nc2[nH]cc(CCc3ccc(C(=O)N[C@@H](CCC(=O)O)C(=O)O)cc3)c2c(=O)[nH]1 [pemetrexed]	less potent	none showed selectivity	greater potency
Cc1nc(=O)c2cc(CN(C)c3ccc(C(=O)N[C@@H](CCC(=O)O)C(=O)O)s3)ccc2[nH]1 [ratitrexed]	less potent	none showed selectivity	greater potency
